Blank lines part the entries; values can stand above or below the molecule they belong to.
Columns and labels:
RXRα [1] = target: T1, RXRα (Homo sapiens, UniProt P19793); assay: Retinoid binding assay, RXRα; parameters: made in house; host or cells: E. coli; settings: [3H] 9-cis retinoic acid 20 nM; read-out: Binding Affinity IC50 RXR α
T1 sequence (P19793 1-462): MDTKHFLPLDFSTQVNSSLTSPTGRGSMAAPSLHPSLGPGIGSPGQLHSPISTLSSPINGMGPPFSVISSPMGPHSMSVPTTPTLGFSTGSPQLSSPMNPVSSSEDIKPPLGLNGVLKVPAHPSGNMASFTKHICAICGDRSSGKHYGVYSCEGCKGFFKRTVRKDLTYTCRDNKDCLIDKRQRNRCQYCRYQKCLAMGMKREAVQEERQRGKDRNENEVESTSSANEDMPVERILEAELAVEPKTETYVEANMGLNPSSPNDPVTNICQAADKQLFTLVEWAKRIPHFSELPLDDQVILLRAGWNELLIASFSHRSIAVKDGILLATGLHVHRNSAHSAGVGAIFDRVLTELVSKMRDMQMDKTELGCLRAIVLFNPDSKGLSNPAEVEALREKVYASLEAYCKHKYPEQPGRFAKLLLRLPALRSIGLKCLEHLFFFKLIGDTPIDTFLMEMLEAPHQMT
Source text: (§1) The DEF domains of RAR's and the full length RXR's, expressed in E.coli, are used to measure competitive retinoid binding. […] 9-cis retinoic acid (for RXR's), respectively. […] Separation of bound from free radioactivity is achieved by charcoal/dextran (RAR's) or by desalting columns (RXR's). […] Retinoid Activation Assays

RXRγ [2] = target: T2, RXRγ (Homo sapiens, UniProt P48443); assay: Retinoid binding assay, RXRγ; parameters: made in house; host or cells: E. coli; settings: [3H] 9-cis retinoic acid 20 nM; read-out: Binding Affinity IC50 RXR γ
T2 sequence (P48443 1-463): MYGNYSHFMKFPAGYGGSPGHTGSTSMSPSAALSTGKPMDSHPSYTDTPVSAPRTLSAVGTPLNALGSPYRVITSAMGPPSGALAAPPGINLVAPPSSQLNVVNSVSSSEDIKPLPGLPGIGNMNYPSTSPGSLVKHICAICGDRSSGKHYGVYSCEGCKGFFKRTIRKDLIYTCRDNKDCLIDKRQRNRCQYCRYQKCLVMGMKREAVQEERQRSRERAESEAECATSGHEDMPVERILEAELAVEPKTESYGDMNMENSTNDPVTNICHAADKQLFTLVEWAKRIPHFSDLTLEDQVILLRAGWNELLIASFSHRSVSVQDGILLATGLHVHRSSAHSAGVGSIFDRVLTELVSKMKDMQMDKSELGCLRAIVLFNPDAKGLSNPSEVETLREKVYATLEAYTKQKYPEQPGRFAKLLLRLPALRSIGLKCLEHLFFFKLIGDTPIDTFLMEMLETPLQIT
Source text: as §1

RXRα Homodimer = target: T3, RXRα Homodimer (Homo sapiens, UniProt P19793); assay: RXRα homodimer activation (transactivation) assay; assay type: cell-based
T3 construct: expressed in transfected cells; host or cells: mammalian cells (BHK21, CV1, etc)
T3 sequence (P19793 1-462): T1 sequence (P19793 1-462)
Source text: (§2) Nuclear hormone receptor (NHR) ligand dependent transcriptional transactivation assay.
This secondary in vitro functional assay to characterize hits from the primary ligand binding screens is a GAL4-LBD transactivation assay. The Gal4-LBD protein consists of an in frame fusion of the transcription factor galactose 4 DNA binding domain from S.cerevisiae with the ligand binding domain (LBD) of a particular NHR. Briefly, a plasmid construct expressing the recombinant chimeric receptor is co-transfected into mammalian cells (BHK21, CV1, etc) with a luciferase reporter plasmid containing several copies in tandem of the GAL4 binding sites (promoter recognition elements) upstream from the minimal promoter driving the luciferase gene. The transfected cells are treated with compounds for 12-24 hours, lysates are produced and assayed for luciferase activity and normalized to internal standards such as GH, growth hormone or SEAP, secreted alkaline phosphatase. Ligand binding stabilizes the LBD conformation that recruits endogenous co-factors that mediate eventually the increased transcriptional activity of the luciferase reporter gene. By comparing the activation profile of a reference ligand or a natural ligand, the EC50 values for agonistic activity of a particular ligand can be measured. The extent of activation that can be measured is indicative of a partial, respectively full agonistic activity of a ligand. […]

PPARγ/RXRα Heterodimer = target: T4, PPARγ/RXRα Heterodimer (Homo sapiens, UniProt P19793); assay: PPARγ/RXRα heterodimer activation (transactivation) assay; assay type: cell-based
T4 construct: co-transfected with plasmids expressing the full length RXR heteropartner receptor; expressed in transfected cells
T4 sequence (P19793 1-462): T1 sequence (P19793 1-462)
T4 sequence (P37231 1-505 partner): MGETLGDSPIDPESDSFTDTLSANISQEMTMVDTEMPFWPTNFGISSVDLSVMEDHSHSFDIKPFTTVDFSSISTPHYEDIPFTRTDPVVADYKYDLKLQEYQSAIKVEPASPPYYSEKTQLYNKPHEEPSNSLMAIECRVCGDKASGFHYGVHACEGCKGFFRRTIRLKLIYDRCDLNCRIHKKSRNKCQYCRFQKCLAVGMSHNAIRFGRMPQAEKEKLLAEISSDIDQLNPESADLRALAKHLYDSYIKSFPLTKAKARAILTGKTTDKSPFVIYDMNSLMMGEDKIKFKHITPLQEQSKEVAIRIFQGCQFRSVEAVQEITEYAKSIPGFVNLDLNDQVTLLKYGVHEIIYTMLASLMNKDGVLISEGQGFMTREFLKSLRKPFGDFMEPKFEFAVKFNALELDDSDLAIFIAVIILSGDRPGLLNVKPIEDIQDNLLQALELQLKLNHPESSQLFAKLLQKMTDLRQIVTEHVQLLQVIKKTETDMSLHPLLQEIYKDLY
Source text: as §2
Heterodimer reporter assays are potentially more important selection criteria for synthetic agonistic NHR ligands as they embody a more natural situation. Basically plasmids expressing the recombinant full length NHR are co-transfected with plasmids expressing the full length RXR heteropartner receptor and a reporter plasmid containing several copies of the natural responsive elements for the respective NHR driving the luciferase reporter gene.

RXRα [3] = target: T1, RXRα; assay: Retinoid activation assay, RXRα (Schneider SL-3 cells, luciferase reporter); assay type: cell-based; settings: read-out: Activation EC50 RXR α
Protocol: (§3) Full length RXR cDNA is used for transfection. As reporter system, the luciferase gene is used in a construct with three copies of a RXR response element from rat CRBP gene, (formerly RARE from betaRAR gene), fused to alcoholdehydrogenase gene promoter in the plasmid pGL2-basic. Schneider SL-3 cells from Drosophila are transiently transfected 3-4 h before the experiment by the Ca-phosphate-DNA coprecipitation method. […] At the end of the incubation, the cell supernatants are assayed for luciferase activity. Results are given as EC50 (nM), the concentration leading to half-maximal activation.

RXRγ [4] = target: T2, RXRγ; assay: Retinoid activation assay, RXRγ (Schneider SL-3 cells, luciferase reporter); assay type: cell-based; settings: read-out: Activation EC50 RXR γ
Protocol: as §3

db/db mice = assay: Investigation with db/db mice (blood glucose and lipids); assay type: in vivo, mouse; settings: for Glucose Diff. D o − D 12 / HDL-cholesterol Diff. D o − D 12 / Total cholesterol Diff. D o − D 12 / Triglycerides Diff. D o − D 12: change day 0 to day 12; for Glucose D o / HDL-cholesterol D o / Total cholesterol D o / Triglycerides D o: day 0; for HDL-cholesterol D 12 / Total cholesterol D 12 / Triglycerides D 12 / Glucose D 12: day 12; for Glucose D-4 / HDL-cholesterol D-4 / Total cholesterol D-4 / Triglycerides D-4: day −4
Protocol: The following compounds are investigated and compared to placebo (vehicle control).
The mentioned 3 compounds are tested in db/db mice during a time when diabetes is in a rapid developing stage. […] Each dosage group and the vehicle group comprise 7 mice. The suspensions used are prepared with peroxide free arachis oil as vehicle. Blood samples are collected by retro-orbital bleeding at days −4, 0 and 12. The blood levels of glucose, triglycerides, total cholesterol, and HDL-cholesterol are determined.
For evaluation of efficacy, the difference between the values of glucose, triglycerides, total cholesterol and HDL-cholesterol changing from day 0 to day 12 is determined and expressed in %. […] Overall evaluation consists in determining the efficacy of the compounds by calculating the whole extent of the effect expressed in %. […] This value is considered as a valuable indicator for the efficacy of the investigated compounds administered in a tolerated dose.

[5] = 30 mg/kg/day group versus vehicle group

IC50 (RXRα [1]): 0.052 µM | IC50 (RXRγ [2]): 0.071 µM | EC50 (RXRα Homodimer): > 10 µM | EC50 (PPARγ/RXRα Heterodimer): > 10 µM | EC50 (RXRα [3]): ≥ 10 µM | EC50 (RXRγ [4]): ≥ 10 µM
SMILES: CCCOc1c([C@@H]2C[C@@H]2/C=C/C(C)=C/C(=O)O)cc(C(C)(C)C)cc1C(C)(C)C (racemic) [Compound 20, (2E,4E)-5-[2-(3,5-Di-tert-butyl-2-propoxy-phenyl)-cyclopropyl]-3-methyl-penta-2,4-dienoic acid]

SMILES: C=C(c1ccc(C(=O)O)cc1)c1cc2c(cc1C)C(C)(C)CCC2(C)C [Compound 2, 4-[1-(5,6,7,8-tetrahydro-3,5,5,8,8-pentamethyl-2-naphthalenyl)ethenyl]benzoic acid, reference compound]
Glucose Diff. D o − D 12 (db/db mice; 0.3 mg/kg/day i.p.): +54.0% | HDL-cholesterol Diff. D o − D 12 (db/db mice; 0.3 mg/kg/day i.p.): −11.8% | Total cholesterol Diff. D o − D 12 (db/db mice; 0.3 mg/kg/day i.p.): −12.3% | Triglycerides Diff. D o − D 12 (db/db mice; 0.3 mg/kg/day i.p.): −4.0% | Glucose D o (db/db mice; 0.3 mg/kg/day i.p.): 189 mg/dL | HDL-cholesterol D o (db/db mice; 0.3 mg/kg/day i.p.): 2.71 mmol/L | Total cholesterol D o (db/db mice; 0.3 mg/kg/day i.p.): 3.99 mmol/L | Triglycerides D o (db/db mice; 0.3 mg/kg/day i.p.): 1.98 mmol/L | HDL-cholesterol D 12 (db/db mice; 0.3 mg/kg/day i.p.): 2.39 mmol/L | Total cholesterol D 12 (db/db mice; 0.3 mg/kg/day i.p.): 3.50 mmol/L | Triglycerides D 12 (db/db mice; 0.3 mg/kg/day i.p.): 1.90 mmol/L | Glucose D-4 (db/db mice; 0.3 mg/kg/day i.p.): 144 mg/dL | HDL-cholesterol D-4 (db/db mice; 0.3 mg/kg/day i.p.): 2.48 mmol/L | Total cholesterol D-4 (db/db mice; 0.3 mg/kg/day i.p.): 3.96 mmol/L | Triglycerides D-4 (db/db mice; 0.3 mg/kg/day i.p.): 1.65 mmol/L | Glucose levels (in words) (db/db mice; 3 mg/kg/day): no significant change | HDL-cholesterol levels (in words) (db/db mice; 3 mg/kg/day): not influenced | Triglyceride levels (in words) (db/db mice; 3 mg/kg/day): hardly influenced | Glucose Diff. D o − D 12 (db/db mice; 3.0 mg/kg/day i.p.): +30.4% | HDL-cholesterol Diff. D o − D 12 (db/db mice; 3.0 mg/kg/day i.p.): −8.3% | Total cholesterol Diff. D o − D 12 (db/db mice; 3.0 mg/kg/day i.p.): −25.4% | Triglycerides Diff. D o − D 12 (db/db mice; 3.0 mg/kg/day i.p.): −24.8% | Glucose D o (db/db mice; 3.0 mg/kg/day i.p.): 175 mg/dL | HDL-cholesterol D o (db/db mice; 3.0 mg/kg/day i.p.): 2.77 mmol/L | Total cholesterol D o (db/db mice; 3.0 mg/kg/day i.p.): 4.65 mmol/L | Triglycerides D o (db/db mice; 3.0 mg/kg/day i.p.): 2.01 mmol/L | Glucose D 12 (db/db mice; 3.0 mg/kg/day i.p.): 229 mg/dL | HDL-cholesterol D 12 (db/db mice; 3.0 mg/kg/day i.p.): 2.54 mmol/L | Total cholesterol D 12 (db/db mice; 3.0 mg/kg/day i.p.): 3.47 mmol/L | Triglycerides D 12 (db/db mice; 3.0 mg/kg/day i.p.): 1.51 mmol/L | Glucose D-4 (db/db mice; 3.0 mg/kg/day i.p.): 169 mg/dL | HDL-cholesterol D-4 (db/db mice; 3.0 mg/kg/day i.p.): 2.66 mmol/L | Total cholesterol D-4 (db/db mice; 3.0 mg/kg/day i.p.): 4.48 mmol/L | Triglycerides D-4 (db/db mice; 3.0 mg/kg/day i.p.): 1.97 mmol/L | Glucose levels (in words) (db/db mice; 30 mg/kg/day): only hardly influenced | HDL-cholesterol levels (in words) (db/db mice; 30 mg/kg/day): decreased | Total cholesterol levels (in words) (db/db mice; 30 mg/kg/day): slightly lower | Triglyceride levels (in words) (db/db mice; 30 mg/kg/day): even raises triglyceride levels | Overall extent of the effect on blood levels of Glucose (db/db mice; [5]): +5.6% | Overall extent of the effect on blood levels of HDL-cholesterol (db/db mice; [5]): −17.8% | Overall extent of the effect on blood levels of Total cholesterol (db/db mice; [5]): −13.0% | Overall extent of the effect on blood levels of Triglycerides (db/db mice; [5]): +18.3% | Glucose Diff. D o − D 12 (db/db mice; 30 mg/kg/day i.p.): +54.8% | HDL-cholesterol Diff. D o − D 12 (db/db mice; 30 mg/kg/day i.p.): −21.6% | Total cholesterol Diff. D o − D 12 (db/db mice; 30 mg/kg/day i.p.): −21.8% | Triglycerides Diff. D o − D 12 (db/db mice; 30 mg/kg/day i.p.): +40.4% | Glucose D o (db/db mice; 30 mg/kg/day i.p.): 155 mg/dL | HDL-cholesterol D o (db/db mice; 30 mg/kg/day i.p.): 3.10 mmol/L | Total cholesterol D o (db/db mice; 30 mg/kg/day i.p.): 4.31 mmol/L | Triglycerides D o (db/db mice; 30 mg/kg/day i.p.): 1.61 mmol/L | Glucose D 12 (db/db mice; 30 mg/kg/day i.p.): 240 mg/dL | HDL-cholesterol D 12 (db/db mice; 30 mg/kg/day i.p.): 2.43 mmol/L | Total cholesterol D 12 (db/db mice; 30 mg/kg/day i.p.): 3.37 mmol/L | Triglycerides D 12 (db/db mice; 30 mg/kg/day i.p.): 2.26 mmol/L | Glucose D-4 (db/db mice; 30 mg/kg/day i.p.): 128 mg/dL | HDL-cholesterol D-4 (db/db mice; 30 mg/kg/day i.p.): 2.74 mmol/L | Total cholesterol D-4 (db/db mice; 30 mg/kg/day i.p.): 4.24 mmol/L | Triglycerides D-4 (db/db mice; 30 mg/kg/day i.p.): 1.75 mmol/L
